Measurements as given in the Deep4Chem optical property database.

Assay: solvent given as SMILES

SMILES: COc1ccc2c(c1)-c1cc3c(cc1[Si]2(c1ccccc1)c1ccccc1)-c1ccccc1[Si]3(c1ccccc1)c1ccccc1
- emission maximum (in ClCCl): 397 nm

SMILES: CC1(C)c2ccccc2N(c2ccc3c(c2)Oc2ccccc2P3(=O)c2ccccc2)c2ccccc21 (stereo unspecified)
- emission maximum (in Cc1ccccc1): 433 nm
- emission maximum (in O=P(c1ccccc1)(c1ccccc1)c1ccccc1Oc1ccccc1P(=O)(c1ccccc1)c1ccccc1): 434 nm

SMILES: CC1=N/C(=C\c2ccc(N(C)C)cc2)C(=O)N1C
- emission maximum (in C1CCCCC1): 437 nm
- emission maximum (in C1CCOC1): 452 nm
- emission maximum (in CC#N): 483 nm
- emission maximum (in CO): 492 nm
- emission maximum (in CS(C)=O): 490 nm
- emission maximum (in ClCCl): 482 nm
- emission maximum (in O): 520 nm

SMILES: CCCCCCC(CCCCCC)N1C(=O)c2cccc3c(-c4cc(OC)c(OC)c(OC)c4)ccc(c23)C1=O
- emission maximum (in CCCCCC): 440.2 nm
- emission maximum (in CCCCCCCCCCCCCC): 442.3 nm
- emission maximum (in CCCCCCCCCCCO): 526.4 nm
- emission maximum (in CCCCO): 572 nm
- emission maximum (in CN(C)C=O): 618.8 nm
- emission maximum (in Cc1ccccc1): 492.4 nm
- emission maximum (in ClC(Cl)Cl): 525.1 nm

SMILES: CC1=[N+]2C(=C(c3ccc(-c4c5ccccc5c(-c5ccccc5)c5ccccc45)cc3)c3ccc(C)n3[B-]2(F)F)C=C1
- emission maximum (in CC#N): 523 nm
- emission maximum (in CCCCCC): 526 nm
- emission maximum (in CCO): 526 nm
- emission maximum (in CN(C)C=O): 529 nm
- emission maximum (in Cc1ccccc1): 532 nm
- emission maximum (in ClCCl): 526 nm

SMILES: N#Cc1cc(N2c3ccccc3Sc3ccccc32)c(N2c3ccccc3Sc3ccccc32)cc1C#N
- emission maximum (in c1ccc2c(c1)c1ccccc1n2-c1ccc(-c2ccc(-n3c4ccccc4c4ccccc43)cc2)cc1): 605 nm

SMILES: O=C1CC(c2ccc(Cl)cc2)c2c(c3ccccc3c3nc4ccccc4nc23)O1 (stereo unspecified)
- emission maximum (in ClC(Cl)Cl): 434 nm

SMILES: CCOC(=O)/N=c1/oc2cc(OC)cc(OC)c2cc1C#N
- emission maximum (in ClCCl): 442 nm

SMILES: CN(C)/C=N\c1ccc2c3c(cccc13)C(=O)c1ccccc1-2
- emission maximum (in C1CCOC1): 586 nm
- emission maximum (in CCCCCC): 528 nm
- emission maximum (in CCO): 634 nm
- emission maximum (in CCOC(C)=O): 586 nm
- emission maximum (in CN(C)C=O): 624 nm
- emission maximum (in CO): 638 nm
- emission maximum (in Cc1ccccc1): 551 nm
- emission maximum (in ClC(Cl)(Cl)Cl): 540 nm
- emission maximum (in ClC(Cl)Cl): 575 nm
- emission maximum (in ClCCl): 593 nm
- emission maximum (in c1ccccc1): 550 nm

SMILES: COc1ccc(C2=Cc3c4ccccc4cc[n+]3[B-](F)(F)O2)cc1
- emission maximum (in ClC(Cl)Cl): 478.2 nm

SMILES: COCCC1=Cc2nc1ccc1[nH]c(cc1CCOC)c1nc(ccc3[nH]c2cc3CCO)C(CCOC)=C1
- emission maximum (in Cc1ccccc1): 643 nm

SMILES: O=C1OC(=O)c2cc(Oc3ccccc3)c3c4ccc5c6c(cc(Oc7ccccc7)c(c7ccc1c2c73)c64)C(=O)OC5=O
- emission maximum (in C1CCOC1): 560 nm
- emission maximum (in CN1CCCC1=O): 595 nm
- emission maximum (in CN(C)C=O): 572 nm

SMILES: Cc1ccc(C2=[N+]3C(=Cc4ccc(C)n4[B-]3(F)F)c3ccccc32)[nH]1
- emission maximum (in C1CCOC1): 621 nm
- emission maximum (in CC#N): 620 nm
- emission maximum (in CCCCCC): 613 nm
- emission maximum (in CO): 616 nm
- emission maximum (in Cc1ccccc1): 623 nm
- emission maximum (in ClCCl): 624 nm

SMILES: N#Cc1nc(N(Cc2ccc(I)cc2)Cc2ccc(I)cc2)c(C#N)nc1N(Cc1ccc(I)cc1)Cc1ccc(I)cc1
- emission maximum (in ClC(Cl)Cl): 574 nm

SMILES: COC(=O)c1[nH]c(-c2ccc([N+](=O)[O-])cc2)c2nnc3ccc(OC)cc3c12
- emission maximum (in ClCCl): 549 nm

SMILES: CCCCCCOc1ccc2ccc3oc(=O)cc4cc(OCCCCCC)c1c2c43
- emission maximum (in CC1CCCO1): 490 nm

SMILES: CC1(C)c2ccccc2N2c3ccccc3C3(c4cc(C#N)ccc4-c4ccc(C#N)cc43)c3cccc1c32
- emission maximum (in Cc1ccccc1): 485.37 nm

SMILES: Cc1ccc2[nH]c(-c3ccc(-c4ccc(-c5ccc(-c6nc7cc(C)ccc7[nH]6)cc5)c(C)c4)cc3)nc2c1
- emission maximum (in CN(C)C=O): 408 nm

SMILES: Clc1ccc(-c2nc3sc4ccccc4c3s2)cc1
- emission maximum (in CS(C)=O): 418 nm

SMILES: COc1ccc(C2=C3C=c4c(oc5cc6c(cc45)[C@H]4CC[C@]5(C)C(=O)CC[C@H]5[C@@H]4CC6)=[N+]3[B-](F)(F)n3c2cc2c4cc5c(cc4oc23)CC[C@@H]2[C@@H]5CC[C@]3(C)C(=O)CC[C@@H]23)cc1
- emission maximum (in CCOC(C)=O): 615 nm
- emission maximum (in CCOCC): 611.5 nm
- emission maximum (in CO): 613.5 nm

SMILES: CCOC(=O)CCCCCn1c2ccccc2c(=O)c2cc(I)ccc21
- emission maximum (in CO): 430 nm

SMILES: CC(C)(C)c1ccc2c(c1)c1cc(C(C)(C)C)ccc1n2-c1ccc(C#Cc2ccc(C=O)cc2)cc1
- emission maximum (in ClCCl): 528 nm

SMILES: CN(C)c1ccc(C#Cc2ccc(C#N)cc2)cc1
- emission maximum (in C1CCCCC1): 383 nm
- emission maximum (in C1CCOC1): 505 nm
- emission maximum (in C1COCCO1): 446.01 nm
- emission maximum (in CC1CCCO1): 468.01 nm
- emission maximum (in CC#N): 571 nm
- emission maximum (in CC(C)=O): 543.01 nm
- emission maximum (in CC(C)CC(C)(C)C): 380 nm
- emission maximum (in CC(C)O): 510 nm
- emission maximum (in CCCCCCCCCCCCCCCC): 385 nm
- emission maximum (in CCCCCCCCCCCCCCCCCl): 423.6 nm
- emission maximum (in CCOC(C)=O): 482 nm
- emission maximum (in CCOCC): 453 nm
- emission maximum (in CN(C)C=O): 566 nm
- emission maximum (in CO): 547.02 nm
- emission maximum (in CS(C)=O): 573 nm
- emission maximum (in Cc1ccccc1): 427 nm

SMILES: c1ccc(N(c2ccccc2)c2cc3c4c(c2)N(c2ccccc2)c2cc5c(cc2B4c2ccccc2N3c2ccccc2)B2c3ccccc3N(c3ccccc3)c3cc(N(c4ccccc4)c4ccccc4)cc(c32)N5c2ccccc2)cc1
- emission maximum (in Cc1ccccc1): 468 nm
- emission maximum (in Cc1ccccc1-c1cccc(Oc2cc3c4c(c2)Oc2cc(-c5ccccc5C)ccc2B4c2ccc(-c4ccccc4C)cc2O3)c1): 473 nm

SMILES: CN(C)c1ccc(/C=C/C=C/c2ccc(B(O)O)cc2)cc1
- emission maximum (in C1CCCCC1): 441 nm

SMILES: Cn1c(/C=C/c2ccc(/C=C/c3nc4ccccc4[nH]3)cc2)[n+](C)c2ccccc21
- emission maximum (in C1CCOC1): 576 nm
- emission maximum (in CC#N): 576 nm
- emission maximum (in CC(C)=O): 580 nm
- emission maximum (in CN(C)C=O): 582 nm
- emission maximum (in CO): 567 nm
- emission maximum (in CS(C)=O): 584 nm
- emission maximum (in O): 574 nm

SMILES: O=c1ccc2cc3c(cc2o1)OCC3
- emission maximum (in CC(C)O): 400 nm
- emission maximum (in CCO): 402 nm
- emission maximum (in CCOCC): 397 nm
- emission maximum (in CO): 405 nm
- emission maximum (in O): 410 nm

SMILES: C[Si](C)(C)C#CC#Cc1ccc2c3cccc4cccc(c5cccc1c52)c43
- emission maximum (in C1CCCCC1): 477.08 nm

SMILES: c1cc(-n2c3ccccc3c3ccccc32)c(-c2nc3ccccn3n2)c(-n2c3ccccc3c3ccccc32)c1
- emission maximum (in Cc1ccccc1): 397 nm

SMILES: COc1ccc(/C=C/c2cc(/C=C/c3ccc(OC)cc3)nc(/C=C/c3ccc4cc(OC)ccc4c3)n2)cc1
- emission maximum (in C1CCOC1): 433 nm
- emission maximum (in CC#N): 463 nm
- emission maximum (in CC(C)=O): 445 nm
- emission maximum (in CCCCCCC): 401 nm
- emission maximum (in CS(C)=O): 471 nm
- emission maximum (in Cc1ccccc1): 411 nm
- emission maximum (in ClCCl): 443 nm

SMILES: CC(C)(C)OC(=O)N1CCN(c2ccc3c(-c4ccc(I)cc4)c4ccc(=[N+]5CCN(C(=O)OC(C)(C)C)CC5)cc-4oc3c2)CC1
- emission maximum (in ClCCl): 585 nm

SMILES: CC1(C)c2ccccc2N(c2ccc(-c3ccc4c(c3)c3cc(-c5ccc(N6c7ccccc7C(C)(C)c7ccccc76)cc5)ccc3c3nc(C#N)c(C#N)nc43)cc2)c2ccccc21
- emission maximum (in C1COCCO1): 668.71 nm
- emission maximum (in CCCCCC): 507.36 nm
- emission maximum (in Cc1ccccc1): 612 nm
- emission maximum (in O=P(c1ccccc1)(c1ccccc1)c1cccc(-c2cc(-n3c4ccccc4c4ccccc43)cc(-n3c4ccccc4c4ccccc43)c2)n1): 594 nm

SMILES: N#Cc1c(N2CCCCC2)cc(-c2ccc3ccc4cccc5ccc2c3c45)c2c1C(=O)c1ccccc1-2
- emission maximum (in C1CCOC1): 473 nm

SMILES: C[Si](C)(C)C#C[Si](c1c2ccccc2cc2ccccc12)(c1c2ccccc2cc2ccccc12)c1c2ccccc2cc2ccccc12
- emission maximum (in ClC(Cl)Cl): 438 nm

SMILES: Cc1ccc2cc(C)ccc2c1
- emission maximum (in C1CCCCC1): 342.82 nm

SMILES: CC(C)(C)c1ccc2c(c1)c1cc(C(C)(C)C)cc3c1n2-c1cc(-c2cccc(F)c2)cc2c1B3c1cc(C(C)(C)C)cc3c4cc(C(C)(C)C)ccc4n-2c13
- emission maximum (in Cc1ccccc1): 493.65 nm

SMILES: CCCCN(CCCC)c1ccc(C#Cc2cc(C#Cc3ccc(N(CCCC)CCCC)cc3)c(C#Cc3c(F)c(F)c(F)c(F)c3F)cc2C#Cc2c(F)c(F)c(F)c(F)c2F)cc1
- emission maximum (in ClCCl): 555 nm
- emission maximum (in c1ccccc1): 512 nm

SMILES: CC1=[N+]2C(=C(/C=C/c3ccc(C(F)(F)F)cc3)c3ccc(C)n3[B-]2(F)F)C=C1c1cc2n(c1)[B-](F)(F)[N+]1=CC=CC1=C2c1c(C)cc(C)cc1C
- emission maximum (in C1CCCCC1): 704 nm
- emission maximum (in CCOC(C)=O): 710 nm

SMILES: CC1CCC(O)(c2ccc(-c3cccs3)s2)CC1 (stereo unspecified)
- emission maximum (in C1CCOC1): 412 nm
- emission maximum (in CC#N): 405 nm
- emission maximum (in CCCCCC): 408 nm
- emission maximum (in CCO): 406 nm
- emission maximum (in OCCOCCO): 414 nm
- emission maximum (in c1ccncc1): 416 nm

SMILES: O=C1c2ccccc2-c2ccc(N3CCN(c4ccccc4)CC3)c3cccc1c23
- emission maximum (in C1CCCCC1): 529 nm
- emission maximum (in C1CCOC1): 583 nm
- emission maximum (in C1COCCO1): 578 nm
- emission maximum (in CC1COC(=O)O1): 614 nm
- emission maximum (in CC#N): 603 nm
- emission maximum (in CC(C)=O): 601 nm
- emission maximum (in CCCCCCCCO): 590 nm
- emission maximum (in CCCCCO): 586 nm
- emission maximum (in CCCCO): 581 nm
- emission maximum (in CCCO): 586 nm
- emission maximum (in CCO): 589 nm
- emission maximum (in CCOC(C)=O): 587 nm
- emission maximum (in CN(C)C=O): 602 nm
- emission maximum (in CO): 577 nm
- emission maximum (in CS(C)=O): 613 nm
- emission maximum (in Cc1ccccc1): 562 nm
- emission maximum (in ClC(Cl)Cl): 591 nm

SMILES: O=S(=O)([O-])CCCCN1C=C/C(=C/C=C/C=C/c2cc[n+](CCCCS(=O)(=O)[O-])c3ccccc23)c2ccccc21
- emission maximum (in CO): 830 nm

SMILES: Cc1cccc(C)c1-c1cc2c(C)c3c4cc5nc6cc7c(cc6nc5cc4c3c(C)c2cc1-c1c(C)cccc1C)c1c(C)c2cc(-c3c(C)cccc3C)c(-c3c(C)cccc3C)cc2c(C)c71
- emission maximum (in ClC(Cl)Cl): 523 nm

SMILES: COc1cccc(-c2nc(-c3ccccc3)c(-c3ccccc3)[nH]2)c1
- emission maximum (in CO): 379 nm

SMILES: CCN(CC)c1ccc2c(c1)oc(=O)c1cc3cnn(-c4ccccc4)c3nc12
- emission maximum (in ClCCl): 501 nm

SMILES: O=C1CC(=O)Nc2cc(Br)ccc2N1
- emission maximum (in CS(C)=O): 350 nm

SMILES: Cc1ccc2ccccc2c1
- emission maximum (in C1CCCCC1): 338.75 nm
